These results are taken from US11053235B2, “Substituted 1,4-dihydropyrimidines for the treatment of HBV infection or HBV-induced diseases” (Janssen Sciences Ireland Unlimited Company, priority 2018, dated 2021).

A short description of data set [1]: Cytotoxicity determination in HepG2.2.15 cells (CCK-8). The format is cell-based. The settings on record: human, 6 days treatment, CCK-8, highest concentration 100 uM. The text has this: (§1) Example 2: Anti-Viral Assay in HepG2.2.15 Cells
(§2) 1.1. Cell Line • HepG2.2.15 (the HepG2.2.15 cell line can be produced by transfection of the HepG2 cell line as described in Sells, Chen, and Acs 1987 (Proc. Natl. Acad. Sci. USA 84:1005-1009), and the HepG2 cell line is available from ATCC® under number HB-8065™). Reagents • DMEM/F12 (INVITROGEN-11330032) • FBS (GIBCO-10099-141) • Dimethyl sulfoxide(DMSO) (SIGMA-D2650) • Penicillin-streptomycin solution (HYCLONE-SV30010) • NEAA (INVITROGEN-1114050) • L-Glutamine (INVITROGEN-25030081) • Geneticin Selective Antibiotic (G418, 500 mg/ml) (INVITROGEN-10131027) • Trypsinase digestion solution (INVITROGEN-25300062) • CCK8 (BIOLOTE-35004) • QIAamp 96 DNA Blood Kit (12) (QIAGEN-51162) • FastStart Universal Probe Mast Mix (ROCHE-04914058001)
(§3) 2.1. HBV Inhibitory Activity and Cytotoxicity Determination
(§4) Seed the cell HepG2.2.15 cells into 96-well plate in 2% FBS culture medium at the density of 40,000 cells/well and 5,000 cells/well for HBV inhibitory activity and cytotoxicity determination, respectively. After seeding, incubate the cell plates at 37° C., 5% CO2 overnight. The next day, medium containing compounds is added to the cell to treat the cells for 6 days with medium refreshed once in the middle of the treatment. 8 dose points with 3 folds dilution of each compound were adopted and the highest concentration of the compounds is 10 uM and 100 uM for HBV inhibitory activity and cytotoxicity determination, respectively.
After 6 days of compounds treatment, add 20 μl CCK-8 reagents to each well of cytotoxicity assay plates, incubate the plate at 37° C., 5% CO2 for 2.5 h and measure the absorbance at 450 nm wavelength, at the same time read the absorbance at 630 nm wavelength as reference.
(§5) EC50 and CC50 values are calculated by the GRAPHPAD PRISM software.

The subject of data set [2] is HBV. As to the kind of experiment: Anti-viral assay in HepG2.2.15 cells: HBV inhibitory activity (HBV DNA in culture medium by q-PCR). The format is cell-based. The settings on record: Hepatitis B virus, HepG2.2.15, 144 h, HepG2.2.15 cells, 6 days treatment, HBV DNA in culture medium by q-PCR, highest concentration 10 uM; read-out: EC50.
Source text: as §1, §2, §3, §4
The HBV DAN change in the cell culture medium induced by the compounds is measured by q-PCR method. Briefly, the HBV DNA in the culture medium is extracted using QIAamp 96 DNA Blood Kit according to the manual and then quantified by q-PCR using the primers and probe in the table below.
as §5

For orientation: CC50 means the concentration giving 50% cytotoxicity. A higher CC50 goes with better tolerance by the cells. Broadly, the EC50 is the concentration giving half of the maximal effect. `COC(=O)C1=C([C@H]2CC[C@H](c3nc(CC(=O)O)co3)CC2)NC(c2nccs2)=NC1c1ccc(F)c(F)c1Cl` (single isomer, unassigned) [Compound I-16-B, (trans)-2-(2-(4-(6-(2-Chloro-3,4-difluorophenyl)-5-(methoxycarbonyl)-2-(thiazol-2-yl)-3,6-dihydropyrimidin-4-yl)cyclohexyl)oxazol-4-yl)acetic Acid] registered a 50% cytotoxic concentration (CC50) at 6 days in data set [1] of 12.4 µM. In addition, the 50% effective concentration (EC50) in data set [2] was determined as 4.8 nM.
The corresponding values for `COC(=O)C1=C([C@H]2CC[C@H](c3nc(CC(=O)O)co3)CC2)NC(c2nccs2)=NC1c1ccc(F)cc1Cl` (single isomer, unassigned) [Compound I-17-A, (trans)-2-(2-(4-(6-(2-Chloro-4-fluorophenyl)-5-(methoxycarbonyl)-2-(thiazol-2-yl)-3,6-dihydropyrimidin-4-yl)cyclohexyl)oxazol-4-yl)acetic Acid] are 25.7 µM and 14 nM.
The corresponding values for `COC(=O)C1=C([C@H]2CC[C@H](c3nc(CC(=O)O)co3)CC2)NC(c2nccs2)=NC1c1ccc(F)cc1Br` (single isomer, unassigned) [Compound I-18-A, (trans)-2-(2-(4-(6-(2-Bromo-4-fluorophenyl)-5-(methoxycarbonyl)-2-(thiazol-2-yl)-3,6-dihydropyrimidin-4-yl)cyclohexyl)oxazol-4-yl)acetic Acid] are 15.3 µM and 7 nM.
The corresponding values for `COC(=O)C1=C([C@H]2CC[C@H](c3nc(CC(=O)O)co3)CC2)NC(c2nccs2)=NC1c1cccc(F)c1Br` (single isomer, unassigned) [Compound I-19-B] are 15.2 µM and 36 nM.
On to `COC(=O)C1=C([C@H]2CC[C@H](c3nc(CC(=O)O)co3)CC2)NC(c2nccs2)=NC1c1cccc(F)c1Cl` (single isomer, unassigned) [Compound I-20-B, (trans)-2-(2-(4-(6-(2-Chloro-3-fluorophenyl)-5-(methoxycarbonyl)-2-(thiazol-2-yl)-3,6-dihydropyrimidin-4-yl)cyclohexyl)oxazol-4-yl)acetic Acid], for which the CC50 at 6 days in data set [1] was determined as 7.21 µM. Moreover, the concentration giving a half-maximal response (EC50) in data set [2] worked out at 30 nM.
The matching figures for `COC(=O)C1=C([C@H]2CC[C@H](c3nc(CC(=O)O)co3)CC2)NC(c2nccs2)=NC1c1cccc(F)c1C` (single isomer, unassigned) [Compound I-21-B, (trans)-2-(2-(4-(6-(3-Fluoro-2-methylphenyl)-5-(methoxycarbonyl)-2-(thiazol-2-yl)-3,6-dihydropyrimidin-4-yl)cyclohexyl)oxazol-4-yl)acetic Acid]: 8.04 µM and 57 nM.
The corresponding values for `COC(=O)C1=C([C@H]2CC[C@H](c3nc(CC(=O)O)c(C)o3)CC2)NC(c2nccs2)=NC1c1ccc(F)c(F)c1Cl` (single isomer, unassigned) [Compound I-22-B, (trans)-2-(2-(4-(6-(2-Chloro-3,4-difluorophenyl)-5-(methoxycarbonyl)-2-(thiazol-2-yl)-3,6-dihydropyrimidin-4-yl)cyclohexyl)-5-methyloxazol-4-yl)acetic Acid] are 7.68 µM and 15 nM.
In data set [1], `CCOC(=O)C1=C([C@H]2CC[C@H](c3nc(CC(=O)O)co3)CC2)NC(c2nccs2)=NC1c1ccc(F)c(F)c1Cl` (single isomer, unassigned) [Compound I-23-B, (trans)-2-(2-(4-(6-(2-Chloro-3,4-difluorophenyl)-5-(ethoxycarbonyl)-2-(thiazol-2-yl)-3,6-dihydropyrimidin-4-yl)cyclohexyl)oxazol-4-yl)acetic Acid] displayed a CC50 at 6 days of 5.48 µM. For the same molecule, the concentration for a half-maximal effect (EC50) in data set [2] came out at 13 nM.
The matching figures for `CCOC(=O)C1=C([C@H]2CC[C@H](c3nc(CCC(=O)O)co3)CC2)NC(c2nccs2)=NC1c1ccc(F)c(F)c1Cl` (single isomer, unassigned) [Compound I-24-A, (trans)-3-(2-(4-(6-(2-Chloro-3,4-difluorophenyl)-5-(ethoxycarbonyl)-2-(thiazol-2-yl)-3,6-dihydropyrimidin-4-yl)cyclohexyl)oxazol-4-yl)propanoic Acid]: 6.79 µM and < 4.6 nM.
Consider `COC(=O)C1=C([C@H]2CC[C@H](c3nc(CC(C)(C)C(=O)O)co3)CC2)NC(c2nccs2)=NC1c1ccc(F)c(F)c1Cl` (single isomer, unassigned) [Compound I-25-B, (trans)-3-(2-(4-(6-(2-Chloro-3,4-difluorophenyl)-5-(methoxycarbonyl)-2-(thiazol-2-yl)-3,6-dihydropyrimidin-4-yl)cyclohexyl)oxazol-4-yl)-2,2-dimethylpropanoic acid], for which it took 7.9 µM to reach half-maximal cytotoxicity in data set [1] (CC50 at 6 days). For the same molecule, the concentration giving a half-maximal response (EC50) in data set [2] came to 6.1 nM.
The matching figures for `CCOC(=O)C1=C([C@H]2CC[C@H](c3ncc(C(=O)O)o3)CC2)NC(c2nccs2)=NC1c1ccc(F)c(F)c1Cl` (single isomer, unassigned) [Compound I-26-B, (trans)-2-(4-(6-(2-chloro-3,4-difluorophenyl)-5-(ethoxycarbonyl)-2-(thiazol-2-yl)-3,6-dihydropyrimidin-4-yl)cyclohexyl)oxazole-5-carboxylic Acid]: 15.5 µM and 55 nM.
The corresponding values for `CCOC(=O)C1=C([C@H]2CC[C@H](c3nc(C(C)(C)C(=O)O)co3)CC2)NC(c2nccs2)=NC1c1ccc(F)c(F)c1Cl` (single isomer, unassigned) [Compound I-27-B, (trans)-2-(2-(4-(6-(2-chloro-3,4-difluorophenyl)-5-(ethoxycarbonyl)-2-(thiazol-2-yl)-3,6-dihydropyrimidin-4-yl)cyclohexyl)oxazol-4-yl)-2-methylpropanoic Acid] are 5.17 µM and 18 nM.
The matching figures for `CCOC(=O)C1=C([C@H]2CC[C@H](c3cnn(CC(=O)O)c3)CC2)NC(c2nccs2)=NC1c1ccc(F)c(F)c1Cl` (single isomer, unassigned) [Compound I-28-B, (trans)-2-(4-(4-(6-(2-chloro-3,4-difluorophenyl)-5-(ethoxycarbonyl)-2-(thiazol-2-yl)-3,6-dihydropyrimidin-4-yl)cyclohexyl)-1H-pyrazol-1-yl)acetic Acid]: 5.28 µM and 33 nM.
In data set [1], `COC(=O)C1=C([C@H]2CC[C@H](c3cnn(CCC(=O)O)c3)CC2)NC(c2nccs2)=NC1c1ccc(F)cc1Cl` (single isomer, unassigned) [Compound I-29-C, (trans)-3-(4-(4-(6-(2-Chloro-4-fluorophenyl)-5-(methoxycarbonyl)-2-(thiazol-2-yl)-3,6-dihydropyrimidin-4-yl)cyclohexyl)-1H-pyrazol-1-yl)propanoic Acid] showed a CC50 at 6 days of 11.2 µM. Besides, the 50% effective concentration (EC50) in data set [2] is 10 nM.
The matching figures for `CCOC(=O)C1=C([C@H]2CC[C@H](c3cnn(C(C)(C)CC(=O)O)c3)CC2)NC(c2nccs2)=NC1c1ccc(F)c(F)c1Cl` (single isomer, unassigned) [Compound I-30-D]: 1.16 µM and 26 nM.
Turning to `CCOC(=O)C1=C([C@H]2CC[C@H](c3cnn(CCC(=O)O)c3)CC2)NC(c2nccs2)=NC1c1ccc(F)c(F)c1Cl` (single isomer, unassigned) [Compound I-32-B, 3-(4-((trans)-4-(6-(2-Chloro-3,4-difluorophenyl)-5-(ethoxycarbonyl)-2-(thiazol-2-yl)-3,6-dihydropyrimidin-4-yl)cyclohexyl)-1H-pyrazol-1-yl)propanoic Acid], half-maximal cytotoxicity in data set [1] (CC50 at 6 days) was put at 5.81 µM. Also, in data set [2], the concentration for a half-maximal effect (EC50) is < 4.6 nM.
The matching figures for `CCOC(=O)C1=C([C@H]2CC[C@H](c3cn(CCC(=O)O)nc3C)CC2)NC(c2nccs2)=NC1c1ccc(F)c(F)c1Cl` (single isomer, unassigned) [Compound I-33-C, (trans)-3-(4-(4-(6-(2-Chloro-3,4-difluorophenyl)-5-(ethoxycarbonyl)-2-(thiazol-2-yl)-3,6-dihydropyrimidin-4-yl)cyclohexyl)-3-methyl-1H-pyrazol-1-yl)propanoic Acid]: 2.97 µM and 7.2 nM.
